From PubChem BioAssay (NCI)
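Grown in 96-well plates, cells were treated for 48 hours with each compound at five concentrations. Insufficient inhibition: endpoint recorded as highest concentration tested. TGI marks complete inhibition of growth.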

Experiments:
Experiment in all cases: NCI anticancer screen, dose series, 48 h
[1] = test system: UACC-62 melanoma
[2] = test system: UO-31 renal
[3] = test system: MCF7 breast
[4] = test system: HS 578T breast
[5] = test system: LOX IMVI melanoma
[6] = test system: NCI-H522 lung
[7] = test system: SN12C renal
[8] = test system: NCI/ADR-RES ovarian
[9] = test system: SK-MEL-28 melanoma
[10] = test system: NCI-H460 lung
[11] = test system: RPMI-8226 leukemia
[12] = test system: HCT-15 colon
[13] = test system: HCT-116 colon
[14] = test system: HOP-92 NSCLC
[15] = test system: MDA-MB-435
[16] = test system: SF-268 CNS
[17] = test system: DU-145 prostate
[18] = test system: MDA-N
[19] = test system: M14 melanoma
[20] = test system: U251 CNS
[21] = test system: ACHN renal
[22] = test system: SNB-19 CNS
[23] = test system: HOP-62 NSCLC
[24] = test system: SF-539 CNS
[25] = test system: KM12 colon
[26] = test system: SK-OV-3 ovarian
[27] = test system: MALME-3M melanoma
[28] = test system: CAKI-1 renal
[29] = test system: SW-620 colon
[30] = test system: PC-3 prostate
[31] = test system: A549 NSCLC
[32] = test system: SNB-75 CNS
[33] = test system: MDA-MB-231 breast
[34] = test system: OVCAR-4 ovarian
[35] = test system: TK-10 renal
[36] = test system: T-47D breast
[37] = test system: SK-MEL-2 melanoma
[38] = test system: SR leukemia
[39] = test system: OVCAR-5 ovarian
[40] = test system: CCRF-CEM leukemia
[41] = test system: SF-295 CNS
[42] = test system: HCC-2998 colon
[43] = test system: UACC-257 melanoma
[44] = test system: HL-60(TB) leukemia
[45] = test system: MOLT-4 leukemia
[46] = test system: COLO 205 colon
[47] = test system: BT-549 breast
[48] = test system: OVCAR-8 ovarian
[49] = test system: RXF 393 renal
[50] = test system: K-562 leukemia
[51] = test system: 786-0 renal
[52] = test system: SK-MEL-5 melanoma
[53] = test system: EKVX NSCLC
[54] = test system: IGROV1 ovarian
[55] = test system: OVCAR-3 ovarian
[56] = test system: NCI-H226 lung
[57] = test system: HT29 colon
[58] = test system: NCI-H23 lung
[59] = test system: A498 renal

Structure (SMILES): CC(=O)C(C(=O)C(C)(C)C)C(=O)C(C)(C)C
- TGI [1]: > 100 µM
- TGI [2]: > 100 µM
- TGI [3]: > 100 µM
- TGI [4]: > 100 µM
- TGI [5]: > 100 µM
- TGI [6]: > 100 µM
- TGI [7]: > 100 µM
- TGI [8]: > 100 µM
- TGI [9]: > 100 µM
- TGI [10]: > 100 µM
- TGI [11]: > 100 µM
- TGI [12]: > 100 µM
- TGI [13]: > 100 µM
- TGI [14]: > 100 µM
- TGI [15]: > 100 µM
- TGI [16]: > 100 µM
- TGI [17]: > 100 µM
- TGI [18]: > 100 µM
- TGI [19]: > 100 µM
- TGI [20]: > 100 µM
- TGI [21]: > 100 µM
- TGI [22]: > 100 µM
- TGI [23]: > 100 µM
- TGI [24]: > 100 µM
- TGI [25]: > 100 µM
- TGI [26]: > 100 µM
- TGI [27]: > 100 µM
- TGI [28]: > 100 µM
- TGI [29]: > 100 µM
- TGI [30]: > 100 µM
- TGI [31]: > 100 µM
- TGI [32]: > 100 µM
- TGI [33]: > 100 µM
- TGI [34]: > 100 µM
- TGI [35]: > 100 µM
- TGI [36]: > 100 µM
- TGI [37]: > 100 µM
- TGI [38]: > 100 µM
- TGI [39]: > 100 µM
- TGI [40]: > 100 µM
- TGI [41]: > 100 µM
- TGI [42]: > 100 µM
- TGI [43]: > 100 µM
- TGI [44]: > 100 µM
- TGI [45]: > 100 µM
- TGI [46]: > 100 µM
- TGI [47]: > 100 µM
- TGI [48]: > 100 µM
- TGI [49]: > 100 µM
- TGI [50]: > 100 µM
- TGI [51]: > 100 µM
- TGI [52]: > 100 µM

Structure (SMILES): OC1(c2ccc(Cl)cc2)c2ccccc2C2=NCc3ccccc3CN21 (stereo not given)
- TGI [1]: 26.7 µM
- TGI [2]: 22.3 µM
- TGI [3]: 17.9 µM
- TGI [4]: 32.5 µM
- TGI [5]: 24.3 µM
- TGI [6]: 27.7 µM
- TGI [7]: > 52.4 µM
- TGI [8]: 26.2 µM
- TGI [9]: 9.58 µM
- TGI [10]: 23.7 µM
- TGI [11]: > 48.6 µM
- TGI [53]: 20.6 µM
- TGI [12]: 20 µM
- TGI [13]: 19.2 µM
- TGI [14]: 41.4 µM
- TGI [15]: 22.7 µM
- TGI [16]: 25.3 µM
- TGI [17]: 34.7 µM
- TGI [18]: 26.5 µM
- TGI [19]: 8.08 µM
- TGI [20]: 25.1 µM
- TGI [21]: 17.8 µM
- TGI [22]: 13.4 µM
- TGI [23]: 21.9 µM
- TGI [54]: 9.63 µM
- TGI [24]: 24.4 µM
- TGI [25]: 11.6 µM
- TGI [26]: 21.2 µM
- TGI [27]: 27.1 µM
- TGI [28]: 37.7 µM
- TGI [55]: 6.33 µM
- TGI [56]: 20.8 µM
- TGI [29]: 15.8 µM
- TGI [30]: 15.2 µM
- TGI [31]: 19.2 µM
- TGI [32]: 19.4 µM
- TGI [57]: 27.8 µM
- TGI [33]: 37.9 µM
- TGI [34]: 25.6 µM
- TGI [35]: 28.9 µM
- TGI [36]: > 61.7 µM
- TGI [37]: 16.9 µM
- TGI [58]: 23.7 µM
- TGI [38]: > 56.3 µM
- TGI [39]: 26 µM
- TGI [40]: > 69.6 µM
- TGI [41]: 28.8 µM
- TGI [42]: 5.13 µM
- TGI [43]: 28.3 µM
- TGI [44]: 17.4 µM
- TGI [45]: > 47.6 µM
- TGI [46]: 19 µM
- TGI [47]: 44.7 µM
- TGI [48]: 24.8 µM
- TGI [50]: > 58 µM
- TGI [51]: 19.4 µM
- TGI [59]: 30.2 µM
- TGI [52]: 33.6 µM

Structure (SMILES): C/C(=N\n1c(Cc2ccccc2)n[nH]c1=O)c1ccc([N+](=O)[O-])cc1
- TGI [1]: > 100 µM
- TGI [2]: > 100 µM
- TGI [3]: > 100 µM
- TGI [4]: > 100 µM
- TGI [5]: > 100 µM
- TGI [6]: > 100 µM
- TGI [7]: > 100 µM
- TGI [8]: > 100 µM
- TGI [9]: > 100 µM
- TGI [10]: > 100 µM
- TGI [11]: > 100 µM
- TGI [53]: > 100 µM
- TGI [12]: > 100 µM
- TGI [13]: > 100 µM
- TGI [14]: > 100 µM
- TGI [15]: > 100 µM
- TGI [17]: > 100 µM
- TGI [18]: > 100 µM
- TGI [19]: > 100 µM
- TGI [20]: > 100 µM
- TGI [22]: > 100 µM
- TGI [23]: > 100 µM
- TGI [54]: > 100 µM
- TGI [25]: > 100 µM
- TGI [27]: > 100 µM
- TGI [28]: > 100 µM
- TGI [55]: > 100 µM
- TGI [56]: > 100 µM
- TGI [29]: > 100 µM
- TGI [30]: > 100 µM
- TGI [31]: > 100 µM
- TGI [57]: > 100 µM
- TGI [33]: > 100 µM
- TGI [34]: > 100 µM
- TGI [35]: > 100 µM
- TGI [36]: > 100 µM
- TGI [37]: > 100 µM
- TGI [58]: > 100 µM
- TGI [39]: > 100 µM
- TGI [41]: > 100 µM
- TGI [43]: > 100 µM
- TGI [44]: > 100 µM
- TGI [45]: > 100 µM
- TGI [46]: > 100 µM
- TGI [47]: > 100 µM
- TGI [48]: > 100 µM
- TGI [49]: 57.2 µM
- TGI [50]: > 100 µM
- TGI [51]: > 100 µM
- TGI [52]: > 100 µM

Structure (SMILES): CC(CN(C)C)C(=O)/C=C/c1ccc(Cl)c(Cl)c1 (stereo not given)
- TGI [1]: 3.69 µM
- TGI [2]: 3.22 µM
- TGI [3]: 0.929 µM
- TGI [4]: 29 µM
- TGI [5]: 2.99 µM
- TGI [6]: 3.24 µM
- TGI [7]: 3.11 µM
- TGI [8]: 79.6 µM
- TGI [9]: 16.5 µM
- TGI [10]: 5.2 µM
- TGI [11]: > 100 µM
- TGI [53]: 3.11 µM
- TGI [13]: 2.99 µM
- TGI [14]: 3.48 µM
- TGI [15]: 3.33 µM
- TGI [16]: 4.14 µM
- TGI [17]: > 100 µM
- TGI [18]: 6.03 µM
- TGI [19]: 5.13 µM
- TGI [20]: 2.51 µM
- TGI [21]: 3.92 µM
- TGI [22]: 19.7 µM
- TGI [23]: 10.4 µM
- TGI [54]: 3.73 µM
- TGI [25]: 3.23 µM
- TGI [26]: 17.5 µM
- TGI [28]: 4.42 µM
- TGI [55]: 3.87 µM
- TGI [56]: 5.57 µM
- TGI [29]: 8.42 µM
- TGI [30]: 2.25 µM
- TGI [31]: 13.8 µM
- TGI [32]: 51.1 µM
- TGI [33]: 3.29 µM
- TGI [34]: 19 µM
- TGI [35]: 4.63 µM
- TGI [36]: > 100 µM
- TGI [37]: 4.19 µM
- TGI [58]: 5.11 µM
- TGI [38]: 6.25 µM
- TGI [39]: 4.07 µM
- TGI [40]: 2.74 µM
- TGI [41]: 12.9 µM
- TGI [42]: 3.48 µM
- TGI [43]: 5.61 µM
- TGI [44]: 4.46 µM
- TGI [45]: > 100 µM
- TGI [46]: 2.58 µM
- TGI [47]: 4.45 µM
- TGI [48]: 2.85 µM
- TGI [49]: 40.8 µM
- TGI [50]: > 100 µM
- TGI [51]: 2.01 µM
- TGI [59]: 3.69 µM
- TGI [52]: 2.99 µM
